{"source": "patent US20230276832A1", "about": "“ULTRASONIC PREPARATION METHOD OF PROTEIN-DERIVED PEPTIDE-POLYSACCHARIDE NANOPARTICLES LOADED WITH BIOACTIVE COMPONENTS” (JIANGSU UNIVERSITY, priority 2021, published 2023)", "key": {"[1]": {"assay": "Solubility of quercetin in water", "assay_type": "physicochemical", "protocol": "Determination method: The quercetin concentration in the quercetin-loaded composite nanoparticle dispersion liquid was determined in the same manner as described in the examples, and calculation was done using the standard curve and dilution ratio. And the solubility of quercetin in water was calculated according to the following formula:\nSolubility (μg/mL)=detected quercetin concentration×dilution factor"}, "[2]": {"assay": "Effect of temperature on stability of quercetin (retention rate)", "assay_type": "physicochemical", "settings": "water bath 60, 75 and 90° C. for 30 min", "protocol": "Experimental method: The newly prepared free quercetin and quercetin-loaded composite nanoparticle dispersions were placed into glass-sealed bottles and heated in a water bath at 60, 75 and 90° C. for 30 min, respectively. It was then immediately cooled to room temperature at 25° C., and the amount of quercetin remaining in the sample was determined. The retention rate (%) of quercetin was calculated according to the following formula: […]"}, "[3]": {"assay": "Effect of light (UV 253.7 nm) on stability of quercetin (retention rate)", "assay_type": "physicochemical", "settings": "after 210 min of ultraviolet light irradiation", "protocol": "Experimental method: The freshly prepared free quercetin and quercetin-loaded composite nanoparticle dispersions were taken into transparent glass bottles in equal volume. It was then placed in a light cabinet of 0.24 m^3 and exposed to light with a wavelength of 253.7 nm, which was generated by a UV lamp with a power of 20 W. After exposure to light for 0, 30, 60, 90, 150, and 210 min, the stability of quercetin in different samples was studied, the residual quercetin content in the samples was determined, and the retention rate of quercetin (%) was calculated according to the following formula: […]"}, "[4]": {"assay": "DPPH free radical scavenging method", "assay_type": "biochemical", "settings": "100 μM DPPH, 30 min in dark", "protocol": "A 100 μM solution of DPPH (as-is) was prepared in dark using absolute ethanol. A volume of 2 mL DPPH solution was taken out and mixed well with 2 mL of sample solution, and allowed to react in dark at room temperature for 30 min. The absorbance at 517 nm of the mixture was measured using a UV-visible spectrophotometer. Distilled water and absolute ethanol were served as blank controls instead of samples. The formula for calculating the DPPH free radical scavenging rate of the sample was as follows:\nWherein, A0 represents blank; A1 is the sample with ethanol; A2 is the sample with DPPH solution."}, "[5]": {"assay": "Release of quercetin during in vitro gastrointestinal digestion simulation", "assay_type": "in vitro ADME", "settings": "for release rate of quercetin: simulated gastric digestion", "protocol": "Experimental method: The pH of 40 mL of freshly prepared free quercetin and quercetin composite nanoparticles dispersion was adjusted to 2.0 with 1 M HCl. After 10 min of preheating in a shaker (37° C., 100 rpm/min), 26.7 mg of pepsin was added and thoroughly mixed for 1 h to initiate simulated gastric digestion. After 1 h of digestion at 37° C., the pH of the pepsin digest was adjusted to 7.4 using 5 M NaOH. 200 mg of bile salts were added and mixed well in a shaker for 10 min. Then 13.6 mg of trypsin was added to start simulated intestinal digestion for 2 h. During the simulated gastrointestinal digestion process, 3 mL of digestion samples were collected at different digestion time (0, 30, 60, 90, 120, 150 and 180 min), and the enzyme was immediately inactivated with liquid nitrogen to terminate the reaction. The content of quercetin was determined, and the release rate (%) of quercetin was calculated according to the following formula: […]"}}}
{"smiles": "O=c1c(O)c(-c2ccc(O)c(O)c2)oc2cc(O)cc(O)c12", "note": "[quercetin]", "values": [{"measurement": "solubility of quercetin in water", "setting": "[1]", "value": 7.05, "unit": "µg/mL"}, {"measurement": "thermal stability of quercetin", "setting": "[2]", "value": "poor thermal stability"}, {"measurement": "retention rate of quercetin", "setting": "[3]", "value": 60.08, "unit": "%"}, {"measurement": "DPPH free radical scavenging rate", "setting": "[4]", "value": 94.52, "unit": "%"}, {"measurement": "quercetin released in the digestive juice", "setting": "[5]; after subsequent simulated intestinal digestion", "value": 90.09, "unit": "%"}, {"measurement": "release rate of quercetin", "setting": "[5]; 60 min", "value": 64.06, "unit": "%"}, {"measurement": "release rate of quercetin", "setting": "[5]; first 30 min", "value": 42.36, "unit": "%"}]}
